Results published in patent publication US20250011307A1, “CRYSTALLINE FORMS OF BIARYL YAP/TAZ-TEAD PROTEIN-PROTEIN INTERACTION INHIBITORS” (Novartis AG, priority 2021, published 2025).

Assays:
Assay type in all cases: physicochemical
[1] = Solid state bulk stability stress test (HPLC degradation products, color, XRPD); design: key to CL color: A: No change; B: Slight discoloration; C: Medium discoloration; D: Strong discoloration; conditions: Compound B forms
[2] = Excipient compatibility stress test (HPLC degradation products, color); design: key to CL color: A: No change; B: Slight discoloration; C: Medium discoloration; D: Strong discoloration; conditions: Compound B forms
[3] = Solubility after equilibration at 25° C. for 24 h, with final pH and XRPD of solid residues; conditions: Compound B forms
[4] = Xenon light stress test of bulk (HPLC degradation products, color, XRPD); design: key to CL color: A: No change; B: Slight discoloration; C: Medium discoloration; D: Strong discoloration; conditions: Compound B forms, Xenon light (1200 kLuxh, 25° C.)
Description: X-ray powder diffraction (XRPD) patterns were obtained using a Bruker Advance D8 in reflection geometry. Powders were analyzed using a zero background Si flat sample holder. The radiation used was Cu Kα (A=1.5418 Å). Patterns were measured between 2° and 40° 2theta. • Sample amount: 5-10 mg • Sample holder: zero background Si flat sample holder
X-ray powder diffraction (XRPD) patterns were obtained using a Bruker Advance D8 in reflection geometry. Powders were analyzed using a zero background Si flat sample holder. The radiation was Cu Kα (λ=1.5418 Å). Patterns were measured between 2° and 40° 2theta. • Sample amount: 5-10 mg • Sample holder: zero background Si flat sample holder

[5] = Hygroscopicity (loss on drying by TGA and XRPD, as is and after storage at 92% / 80% RH); conditions: Compound B forms, TGA temperature per cell: free form @233° C., succinate @205° C., L-malate @200° C., L-lactate @200° C.
[6] = 2 weeks 50° C./75% RH, 1% in HGC powder
[7] = 2 weeks 50° C./75% RH, 1% in HPMC powder
[8] = 2 weeks 50° C./closed, 1% in HGC powder
[9] = 2 weeks 50° C./closed, 1% in HPMC powder

For `CNC[C@]1(c2ccccc2)Oc2cc(F)c(Cl)c(-c3c(C(N)=O)ccc(OC)c3F)c2[C@@H]1C` [Compound B Free form, amorphous, 2-((2S,3S,4S)-5-Chloro-6-fluoro-3-methyl-2-((methylamino)methyl)-2-phenyl-2,3-dihydrobenzofuran-4-yl)-3-fluoro-4-methoxybenzamide], the “Bulk (XRPD)” value ([1]; 2 weeks 50° C./75% RH) was “gel-like”, the CL color ([1]; 2 weeks 50° C./75% RH) was “A” and the “DP[%] degradation products, Bulk (HPLC)” value ([1]; 2 weeks 50° C./75% RH) was 4.84%. For the same molecule, the “Bulk (XRPD)” value ([1]; 2 weeks 80° C./11% RH) was “gel-like”, the CL color ([1]; 2 weeks 80° C./11% RH) was “C” and the “DP[%] degradation products, Bulk (HPLC)” value ([1]; 2 weeks 80° C./11% RH) was 13.00%. The “Bulk (XRPD)” value ([1]; 2 weeks 80° C./75% RH) was “gel-like”, the CL color ([1]; 2 weeks 80° C./75% RH) was “C” and the “DP[%] degradation products, Bulk (HPLC)” value ([1]; 2 weeks 80° C./75% RH) was 14.88%. The CL color [2, 6] was “A”, the “DP[%] degradation products” value [2, 6] was 2.50% and the CL color [2, 7] was “A”. The “DP[%] degradation products” value [2, 7] was 4.33%, the CL color [2, 8] was “A” and the “DP[%] degradation products” value [2, 8] was 1.87%. For the same molecule, the CL color [2, 9] was “A”, the “DP[%] degradation products” value [2, 9] was 2.02% and the “final pH” value ([3]; Blank FaSSIF) was “[7.36]”. The “Sol. (solubility)” value ([3]; Blank FaSSIF, target concentration 2 mg/mL) was 1490 µg/mL, the “final pH” value ([3]; FaSSIF V2 pH 6.5) was “[7.19]” and the “Sol. (solubility)” value ([3]; FaSSIF V2 pH 6.5, target concentration 2 mg/mL) was 1150 µg/mL. For the same molecule, the “final pH” value ([3]; FeSSIF V2 pH 5.8) was “[6.01]”, the “Sol. (solubility)” value ([3]; FeSSIF V2 pH 5.8, target concentration 2 mg/mL) was over 2000 µg/mL and the “final pH” value ([3]; SGF pH 2.0) was “[2.22]”. The “Sol. (solubility)” value ([3]; SGF pH 2.0, target concentration 2 mg/mL) was over 2000 µg/mL, the “final pH” value ([3]; Water) was “[8.78]” and the “Sol. (solubility)” value ([3]; Water, target concentration 2 mg/mL) was 70 µg/mL. For the same molecule, the “final pH” value ([3]; pH 1.2, 100 mM HCl) was “[1.16]”, the “Sol. (solubility)” value ([3]; pH 1.2, 100 mM HCl, target concentration 2 mg/mL) was over 2000 µg/mL and the “final pH” value ([3]; pH 3.0, 50 mM citrate buffer) was “[3.08]”. The “Sol. (solubility)” value ([3]; pH 3.0, 50 mM citrate buffer, target concentration 2 mg/mL) was over 2000 µg/mL, the “final pH” value ([3]; pH 4.7, 50 mM acetate buffer) was “[4.84]” and the “Sol. (solubility)” value ([3]; pH 4.7, 50 mM acetate buffer, target concentration 2 mg/mL) was over 2000 µg/mL. For the same molecule, the “final pH” value ([3]; pH 6.8, 50 mM phosphate buffer) was “[6.90]”, the “final pH” value ([3]; pH 6.8, 50 mM phosphate buffer with 50 mM Na taurocholate) was “[6.72]” and the “Sol. (solubility)” value ([3]; pH 6.8, 50 mM phosphate buffer with 50 mM Na taurocholate, target concentration 2 mg/mL) was over 2000 µg/mL. The “Sol. (solubility)” value ([3]; pH 6.8, 50 mM phosphate buffer, target concentration 2 mg/mL) was over 2000 µg/mL, the “Bulk amber vial (XRPD)” value ([4]; amber vial) was “No change” and the CL color ([4]; amber vial) was “A”. The “DP[%] degradation products, Bulk amber vial (HPLC)” value ([4]; amber vial) was 0.19%, the “Bulk clear quartz vial (XRPD)” value ([4]; clear quartz vial) was “No change” and the CL color ([4]; clear quartz vial) was “C”. For the same molecule, the “DP[%] degradation products, Bulk clear quartz vial (HPLC)” value ([4]; clear quartz vial) was 2.74%, the “Loss on drying by TGA” value ([5]; After 1 day at 92% RH) was 2.14%@233 °C and the “Loss on drying by TGA” value ([5]; Hygroscopicity, As is) was 1.30%@233 °C.
